Results: patent US20170368182A1, “Pharmaceutical Semi-Solid Gels with Entrapped Calcium Phosphate Nanoparticles” (Belmont University, priority 2014, published 2017)
Where a name gives a salt, the structure may show the parent alone. Read-outs that look alike come from different tables or passages of the source.

What was measured:
[1] = Example 2; Na CMC value theoretical; cited from earlier work
[2] = low viscosity ophthalmic solutions; cited from earlier work
[3] = first seven years of use / commercial production of ophthalmic product, cited from earlier work
[4] = Osmolality contribution of gel components; assay type: physicochemical; details: 0.68% timolol maleate; 0.5% carbomer 980 calculated from 0.3% carbomer 934
Description: The exact osmolality 0.5% carbomer 980 gel was not known, but it was calculated using the osmolality of 0.3% carbomer 934.^19 The 0.68% timolol maleate contributes 31.4 mOsm and the carbomer contributes approximately 42 mOsm. To make the gel isotonic, 4.1 g of 5% dextrose would need to be added to obtain an isotonic gel with a tonicity of 300 mOsm. However, the results of this experiment will be compared to the results of a similar experiment using carboxymethylcellulose, CMC. […] The gel was thoroughly mixed by hand and then with a stir bar and magnetic stirrer to ensure uniformity.
Also, to make the concentrated 9% of the polymer to create enough for 3 gels, 9 g of the polymer was added to a 250 ml beaker. The polymer was hydrated with distilled water to 180 ml which took 1 hour to dissolve through the use of magnetic stirrer and stirring by hand. Next, 0.68 g of timolol maleate salt was added to the beaker with 60 ml of Na CMC. The contents were then q.s to a final concentration of 100 ml. […] Timolol maleate has osmolality of 31 mOsm and Na CMC has a theoretical osmolality of 470 mOsm which mitigated the need to add dextrose to reach osmolality.^18 The pH was assessed by using an electrode and the pH was between 7-8 which prevented the need to add sodium hydroxide to get to the physiological pH. […]

## CC(C)(C)NC[C@H](O)COc1nsnc1N1CCOCC1 [Timolol maleate]
[1]
  osmolality: 31 mOsm
[2]
  share of Timolol that reaches intraocular tissues: less than 5%
[3]
  deaths: Thirty two
[3]; listed as timolol maleate
  deaths: ~37
[4]
  osmolality contribution: 31.4 mOsm
